Reference: ChEMBL document CHEMBL1134701, “Atropisomeric quinazolin-4-one derivatives are potent noncompetitive alpha-amino-3-hydroxy-5-methyl-4-isoxazolepropionic acid (AMPA) receptor antagonists” (Bioorg Med Chem Lett, 2001)

Experiments:
[1] = target: T1, Glutamate receptor ionotropic, AMPA (Rattus norvegicus, UniProt P19490+P19491+P19492+P19493); assay: Ability to block kainate-induced 45 [Ca2+] influx through functional assay of Ionotropic glutamate receptor AMPA activity in rat cerebellar granule cells
Mus musculus [2] = assay: Blockade of pentylenetetrazole induced seizures in mice on subcutaneous administration (95% CI); format: functional
[3] = target: T1, Glutamate receptor ionotropic, AMPA; assay: Evaluated in patch clamp electrophysiology study for its selectively evoked Ionotropic glutamate receptor AMPA mediated inward currents.
Mus musculus [4] = assay: Minimum effective dose in mice on subcutaneous administration; format: functional
Rattus norvegicus [5] = species: Rattus norvegicus; assay: Evaluated in patch clamp electrophysiology study for its selectively evoked AMPA and NMDA (glutamate receptors) mediated inward currents reduction; format: functional
Mus musculus [6] = assay: Blockade of ivc AMPA induced seizures in mice on subcutaneous administration (95%CI); format: functional
Rattus norvegicus [7] = assay: Evaluated in vivo for the reduction in the population spike amplitude in the CA3 region of the hippocampus in anesthetized rat at a dose of 2 mg/kg (iv); format: functional
[8] = target: T1, Glutamate receptor ionotropic, AMPA; assay: Ability to block kainate-induced 45 [Ca2+] influx through functional assay of Ionotropic glutamate receptor AMPA activity in rat cerebellar granule cells.
Mus musculus [9] = assay: Blockade of pentylenetetrazole induced seizures in mice on subcutaneous administration; format: functional; settings: sc, read-out: ID50 (the source's name)

SMILES | IC50 [1] | other results
COC(=O)c1cccc(/C=C/c2nc3ccc(F)cc3c(=O)n2-c2ccccc2Cl)n1 | 400 nM | –
O=c1c2ccccc2nc(/C=C/c2ccccn2)n1-c1ccccc1 | > 1000 nM | –
CNCc1cccc(/C=C/c2nc3ccc(F)cc3c(=O)n2-c2ccccc2Cl)n1 | 103 nM | –
O=Cc1cccc(/C=C/c2nc3ccc(F)cc3c(=O)n2-c2ccccc2Cl)n1 | 97 nM | –
COc1cccc2c(=O)n(-c3ccccc3C)c(/C=C/c3ccccn3)nc12 | > 1000 nM | –
Cc1ccc2nc(/C=C/c3ccccn3)n(-c3ccccc3C)c(=O)c2c1 | 1370 nM | –
Cc1ccccc1-n1c(/C=C/c2ccccn2)nc2c(Cl)cc(Cl)cc2c1=O | > 1000 nM | –
O=c1c2cc(F)ccc2nc(/C=C/c2cccc(N3CCCC3)n2)n1-c1ccccc1Cl | 31 nM | –
Cc1cccc(/C=C/c2nc3ccc(F)cc3c(=O)n2-c2ccccc2Cl)n1 | 36 nM | –
CCOCc1cccc(/C=C/c2nc3ccc(F)cc3c(=O)n2-c2ccccc2Cl)n1 | 82 nM | –
Cc1cccc(C)c1-n1c(/C=C/c2ccccn2)nc2ccccc2c1=O | > 1000 nM | –
O=c1c2cc(F)ccc2nc(/C=C/c2ccccn2)n1-c1c(F)cccc1F | > 300 nM | –
NCc1cccc(/C=C/c2nc3ccc(F)cc3c(=O)n2-c2ccccc2Cl)n1 | 340 nM | –
N#Cc1cccc(/C=C/c2nc3ccc(F)cc3c(=O)n2-c2ccccc2Cl)n1 | 244 nM | –
Cc1ccccc1-n1c(/C=C/c2ccccn2)nc2cc(Cl)ccc2c1=O | > 3000 nM | –
CC(C)NCc1cccc(/C=C/c2nc3ccc(F)cc3c(=O)n2-c2ccccc2Cl)n1 | 59 nM | –
CN(C)Cc1cccc(/C=C/c2nc3ccc(F)cc3c(=O)n2-c2ccccc2Cl)n1 | 178 nM | –
Cc1ccccc1-n1c(/C=C/c2ccccn2)nc2ccc(F)cc2c1=O | 248 nM | –
CC(=O)OCc1cccc(/C=C/c2nc3ccc(F)cc3c(=O)n2-c2ccccc2Cl)n1 | 45 nM | –
O=c1c2ccccc2nc(/C=C/c2ccccn2)n1-c1ccccc1F | 116 nM | –
O=c1c2ccccc2nc(/C=C/c2ccccn2)n1-c1ccccc1Br | 102 nM | –
COCc1cccc(/C=C/c2nc3ccc(F)cc3c(=O)n2-c2ccccc2Cl)n1 | 42 nM | –

SMILES | IC50 [1] | other results
O=c1c2cc(F)ccc2nc(/C=C/c2ccccn2)n1-c1ccccc1F | 180 nM | –
COc1ccccc1-n1c(/C=C/c2ccccn2)nc2ccccc2c1=O | 1100 nM | –
Cc1ccccc1-n1c(/C=C/c2ccccn2)nc2c(Cl)cccc2c1=O | > 1000 nM | –
O=C(O)c1cccc(/C=C/c2nc3ccc(F)cc3c(=O)n2-c2ccccc2Cl)n1 | > 1000 nM | –
O=c1c2ccccc2nc(/C=C/c2ccccn2)n1-c1ccccc1Cl | 433 nM | –
CCNCc1cccc(/C=C/c2nc3ccc(F)cc3c(=O)n2-c2ccccc2Cl)n1 | 81 nM | –
O=c1c2cc(F)ccc2nc(/C=C/c2ccccn2)n1-c1ccccc1Cl | 96 nM | –
O=c1c2cc(F)ccc2nc(/C=C/c2cccc(CO)n2)n1-c1ccccc1Cl | 58 nM | –
O=c1c2cc(F)ccc2nc(/C=C/c2cccc(N3CCCCC3)n2)n1-c1ccccc1Cl | > 300 nM | –
Cc1ccccc1-n1c(/C=C/c2ccccn2)nc2ccc(Cl)cc2c1=O | 124 nM | –
O=c1c2ccccc2nc(/C=C/c2ccccn2)n1-c1ccccc1C(F)(F)F | 146 nM | –
O=c1c2cc(F)ccc2nc(/C=C/c2cccc(CF)n2)n1-c1ccccc1Cl | 56 nM | –
COc1cccc(/C=C/c2nc3ccc(F)cc3c(=O)n2-c2ccccc2Cl)n1 | 31 nM | –
O=c1c2ccccc2nc(/C=C/c2ccccn2)n1-c1c(Cl)cccc1Cl | > 1000 nM | –
CN(C)CCN(C)Cc1cccc(/C=C/c2nc3ccc(F)cc3c(=O)n2-c2ccccc2Cl)n1 | 150 nM | –
Cc1ccccc1-n1c(/C=C/c2ccccn2)nc2ccc(Br)cc2c1=O | 162 nM | –
COc1cc2nc(/C=C/c3ccccn3)n(-c3ccccc3C)c(=O)c2cc1OC | > 1000 nM | –
O=c1c2cc(F)ccc2nc(/C=C/c2ccccn2)n1-c1ccccc1Br | 65 nM | –
CCN(CC)Cc1cccc(/C=C/c2nc3ccc(F)cc3c(=O)n2-c2ccccc2Cl)n1 (stereo in doubt; 38) | 74 nM | ID50 (Mus musculus [2]): 3.8 mg/kg; IC50 [3]: 25 nM; minimal effective dose (Mus musculus [4]; Mus musculus, sc, read-out: MED): 10 mg/kg; Reduction (Rattus norvegicus [5]): 36%; ED50 (Mus musculus [6]; Mus musculus, sc, read-out: ID50 (the source's name)): 3.6 mg/kg; Blockade (Rattus norvegicus [7]): 65.1%
CCN(CC)Cc1cccc(/C=C/c2nc3ccc(F)cc3c(=O)n2-c2ccccc2Cl)n1 (stereo in doubt; (+)-38) | – | ID50 (Mus musculus [2]): 1.5 mg/kg; MED (Mus musculus [4]): 5.6 mg/kg; ID50 (Mus musculus [6]): 3.1 mg/kg; IC50 [8]: 36 nM
CCN(CC)Cc1cccc(/C=C/c2nc3ccc(F)cc3c(=O)n2-c2ccccc2Cl)n1 (stereo in doubt; (-)-38) | – | ED50 (Mus musculus [9]): 10 mg/kg; IC50 [8]: 0.1 nM
Cc1ccccc1-n1c(/C=C/c2ccccn2)nc2ccccc2c1=O [PIRIQUALONE] | 460 nM | –
